Source: article PMC12640828 (Frontiers in Pharmacology, 2025)

Columns and labels:
Rat cardiac H9C2 cells = experiment: MTT-cell viability assay; type: cell-based; conditions: 1 μM, 3 μM and 10 µM, 4 days, MTT colorimetric
Description: The rat cardiac H9C2 cells were maintained in Dulbecco’s Modified Eagle Medium (DMEM) cell culture medium (supplemented with 10% fetal bovine serum, 4.5 gm/liter D-glucose, and 1x penicillin-streptomycin antibiotic solution) and grown at 37 °C in a humidified incubator with 5% CO2. Cells in a 96-well plate were treated with 1 μM, 3 μM, and 10 µM concentrations of NMEG-CGRP and CMEG-CGRP and further grown for 4 days. The cell viability assay was performed using colorimetric MTT-cell proliferation kit I (Roche-Millipore Sigma, St Louis, MO) following the vendor’s protocol.

[1] = molecular target: T1, insulin-degrading enzyme (IDE) (Homo sapiens, UniProt P14735); experiment: In vitro peptide digestion with IDE followed by LC-MS; type: in vitro ADME; conditions: 100 µM peptide, 0.1 µg IDE, 50 mM Tris-Cl pH 7.5 + 1M NaCl, 25 µL, 37 °C, sampled at 5, 30, 60 min
T1 construct: purchased R&D Systems, Minneapolis, MN
T1 sequence (P14735 1-1019): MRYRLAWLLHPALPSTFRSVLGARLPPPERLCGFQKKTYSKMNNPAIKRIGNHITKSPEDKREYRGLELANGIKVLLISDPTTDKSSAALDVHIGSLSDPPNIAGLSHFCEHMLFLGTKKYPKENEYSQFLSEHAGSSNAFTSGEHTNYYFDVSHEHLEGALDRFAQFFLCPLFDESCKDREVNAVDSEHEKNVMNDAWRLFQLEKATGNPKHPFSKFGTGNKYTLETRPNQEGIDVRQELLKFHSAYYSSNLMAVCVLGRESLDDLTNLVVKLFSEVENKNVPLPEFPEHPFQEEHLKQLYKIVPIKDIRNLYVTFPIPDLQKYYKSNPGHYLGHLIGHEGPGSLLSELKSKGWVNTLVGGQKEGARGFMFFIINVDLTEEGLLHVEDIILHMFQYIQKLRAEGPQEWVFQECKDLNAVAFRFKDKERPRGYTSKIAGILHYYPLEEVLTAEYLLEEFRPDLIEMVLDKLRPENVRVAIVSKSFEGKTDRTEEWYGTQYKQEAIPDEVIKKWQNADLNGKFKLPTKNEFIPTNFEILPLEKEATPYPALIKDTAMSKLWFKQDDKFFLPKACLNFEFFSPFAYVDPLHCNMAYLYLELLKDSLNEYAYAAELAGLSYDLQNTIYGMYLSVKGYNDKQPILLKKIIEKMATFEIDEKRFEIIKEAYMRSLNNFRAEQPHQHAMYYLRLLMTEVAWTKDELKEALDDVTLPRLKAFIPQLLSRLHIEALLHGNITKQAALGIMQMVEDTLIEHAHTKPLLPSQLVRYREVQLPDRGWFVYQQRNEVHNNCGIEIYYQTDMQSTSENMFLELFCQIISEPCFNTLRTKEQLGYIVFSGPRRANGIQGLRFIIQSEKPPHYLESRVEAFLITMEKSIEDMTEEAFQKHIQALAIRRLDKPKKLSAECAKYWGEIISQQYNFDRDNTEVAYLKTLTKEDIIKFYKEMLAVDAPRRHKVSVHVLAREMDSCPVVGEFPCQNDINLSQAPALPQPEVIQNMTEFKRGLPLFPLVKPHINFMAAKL
Description: An equal volume (25 µL) of 10% formic acid (Sigma) was added. After heating the reaction at 95 °C for 5 min, desalting of the peptides was carried out using Pierce C18 tips (87782; ThermoFisher Scientific). For peptide-desalting, 30 µL of 2.5% trifluoroacetic acid (TFA) was added in a total 50 µL of the peptide-digestion reaction. Pierce C18 tips were wetted in 50% acetonitrile:water soln, equilibrated with 0.1% TFA, and peptides were passed through the C18 tips. After washing the C18 tips with 0.1% TFA in 5% acetonitrile:water soln, peptides were eluted in 10 µL of 0.1% formic acid in 75% acetonitrile: water soln and stored at −80 °C. Desalted peptide samples were submitted for Liquid Chromatography Mass Spectrometry (LC-MS) analysis to the University of South Carolina-Mass Spectrometry Center.

[2] = system: TAC pressure-overload induced HF in mice; experiment: TAC pressure-overload heart failure in mice: echocardiography and heart weight; type: in vivo, male C57BL/6 mice; conditions: 3.6 mg/kg/mouse s.c. on alternate days for 28 days
Description: Eight-week-old male C57BL/6 mice, purchased from Charles River Laboratories (Wilmington, MA), were housed in the institutional animal facility on a 12 h light/12 h dark cycle with free access to food and water throughout. Animal protocols were approved by the University of South Carolina-Institutional Animal Care and Use Committee (IACUC) following the NIH guidelines.
A transverse aortic constriction (TAC) procedure was followed to induce pressure-overload HF in mice ([Li et al., 2013]; [Kumar et al., 2019b]; [Kumar et al., 2020]). Briefly, mice were anesthetized under 1%–2% isoflurane and the chests of these mice were opened through the suprasternal notch. A 7–0 polypropylene suture was passed under the aortic arch between the left common carotid and innominate arteries and tied around the aorta and a 27-G needle. After tying a knot, the needle was removed, and the chest was closed using a 6–0 suture. Mice were kept on the 37 °C heat pad until they recovered and buprenorphine (0.1 mg/kg/mouse) was given subcutaneously (s.c.) as post-operative care. An identical procedure except tying a knot around the aortic arch was performed in the Sham groups of mice. Two days post-TAC, mice were divided into four groups (6–7 mice/gr): i- Sham, ii- Sham+NMEG-CGRP, iii- TAC, and iv- TAC+NMEG-CGRP. A stock solution 1 mg/mL of NMEG-CGRP was prepared in sterile 0.9% NaCl soln and NMEG-CGRP at 3.6 mg/kg/mouse dose was injected s.c. in the Sham+NMEG-CGRP and TAC+NMEG-CGRP groups of mice on alternate days for a total of 28 days. […]
The short axis 2D echocardiography was performed before TAC procedure (day 0) and then weekly after start of NMEG-CGRP administration in all groups of mice under 1%–2% isoflurane anesthesia using Vevo 3100 High-Resolution Imaging System (VisualSonics Inc., Toronto, Canada) and cardiac parameters were calculated using VisualSonics Measurement Software ([Li et al., 2013]; [Kumar et al., 2020]).

Solubility in water = type: physicochemical

| Compound | Viability of cardiac cells (MTT optical density vs control) (Rat cardiac H9C2 cells) | Time to complete digestion of full-length peptide by IDE [1] | Abnormalities / adverse effect in mice during NMEG-CGRP delivery ([2]; Sham- and TAC-mice) | EF, Sham vs. Sham+NMEG-CGRP ([2]; sham mice, day 30) | Fractional shortening (FS), Sham vs. Sham+NMEG-CGRP ([2]; sham mice, day 30) | Solubility in water (Solubility in water) |
| --- | --- | --- | --- | --- | --- | --- |
| COCCNCC(=O)N(CCOC)CC(=O)N[C@@H](C)C(=O)N[C@H]1CSSC[C@@H](C(=O)N[C@H](C(=O)N[C@H](C(=O)N[C@@H](Cc2c[nH]cn2)C(=O)N[C@@H](CCCNC(=N)N)C(=O)N[C@@H](CC(C)C)C(=O)N[C@@H](C)C(=O)NCC(=O)N[C@@H](CC(C)C)C(=O)N[C@@H](CC(C)C)C(=O)N[C@@H](CO)C(=O)N[C@@H](CCCNC(=N)N)C(=O)N[C@@H](CO)C(=O)NCC(=O)NCC(=O)N[C@H](C(=O)N[C@H](C(=O)N[C@@H](CCCCN)C(=O)N[C@@H](CC(N)=O)C(=O)N[C@@H](CC(N)=O)C(=O)N[C@@H](Cc2ccccc2)C(=O)N[C@H](C(=O)N2CCC[C@H]2C(=O)N[C@H](C(=O)N[C@@H](CC(N)=O)C(=O)N[C@H](C(=O)NCC(=O)N[C@@H](CO)C(=O)N[C@@H](CCCCN)C(=O)N[C@@H](C)C(=O)N[C@@H](Cc2ccccc2)C(N)=O)C(C)C)[C@@H](C)O)C(C)C)C(C)C)C(C)C)[C@@H](C)O)C(C)C)NC(=O)[C@H]([C@@H](C)O)NC(=O)[C@H](C)NC(=O)[C@H]([C@@H](C)O)NC(=O)[C@H](CC(=O)O)NC1=O [NMEG-CGRP] | did not inhibit the growth of H9C2 cells | > 60 min | did not observe any abnormalities | non-significant | non-significant | soluble in water |
| CC(C)C[C@H](NC(=O)CNC(=O)[C@H](C)NC(=O)[C@H](CC(C)C)NC(=O)[C@H](CCCNC(=N)N)NC(=O)[C@H](Cc1cnc[nH]1)NC(=O)[C@@H](NC(=O)[C@@H](NC(=O)[C@@H]1CSSC[C@H](NC(=O)[C@H](C)N)C(=O)N[C@@H](CC(=O)O)C(=O)N[C@@H]([C@@H](C)O)C(=O)N[C@@H](C)C(=O)N[C@@H]([C@@H](C)O)C(=O)N1)C(C)C)[C@@H](C)O)C(=O)N[C@@H](CC(C)C)C(=O)N[C@@H](CO)C(=O)N[C@@H](CCCNC(=N)N)C(=O)N[C@@H](CO)C(=O)NCC(=O)NCC(=O)N[C@H](C(=O)N[C@H](C(=O)N[C@@H](CCCCN)C(=O)N[C@@H](CC(N)=O)C(=O)N[C@@H](CC(N)=O)C(=O)N[C@@H](Cc1ccccc1)C(=O)N[C@H](C(=O)N1CCC[C@H]1C(=O)N[C@H](C(=O)N[C@@H](CC(N)=O)C(=O)N[C@H](C(=O)NCC(=O)N[C@@H](CO)C(=O)N[C@@H](CCCCN)C(=O)N[C@@H](C)C(=O)N[C@@H](Cc1ccccc1)C(N)=O)C(C)C)[C@@H](C)O)C(C)C)C(C)C)C(C)C [human α-CGRP, reference compound] |  | 5 to 30 min |  |  |  |  |
